From patent publication US10689335B2, “Hydrogen sulfide precursors and conjugates thereof” (Georgia State University Research Foundation, Inc., priority 2015, dated 2020)
One block for each molecule: values may come before it.

Columns and labels:
[1] = test system: TNF-α secretion in RAW 264.7 cells; assay: Anti-inflammation study: TNF-α in LPS-stimulated RAW 264.7 cell culture supernatant (ELISA); type: cell-based; details: 1 hour co-treatment with 1 unit/mL esterase and 1 μg/mL LPS
Experimental: RAW 264.7 cells were seeded in the 48-well plate one day before the experiment. Lipopolysaccharide was added into the cell culture to initiate the inflammatory response in RAW 264.7 cells and to trigger the expression of cytokines. RAW 264.7 cells were co-treated with HPs (HP-101, HP-102, HP-103, HP-104) or iHPs, 1 unit/mL esterase and 1 μg/mL of LPS for 1 hour. Thereafter, the cell culture supernatant was collected. The concentrations of TNF-α in the cell culture supernatant was quantified by a commercial ELISA kit (ELISA Ready-SET-Go!®-eBioscience).

porcine liver esterase = assay: Esterase-induced H2S release detected with fluorescent probe WSP-5; type: biochemical; details: 200 μM, porcine liver esterase 4 u/mL in PBS at 37° C.
Experimental: The ability of esterases to release hydrogen sulfide, as shown in Scheme 17, was examined using a well-known hydrogen sulfide fluorescent probe WSP-5 (3-oxo-3H-spiro[isobenzofuran-1,9′-xanthene]-3′,6′-diyl bis(2-(pyridin-2-yldisulfanyl)benzoate) to detect its production in the hydrogen sulfide precursor (HP) reaction mixture. A 200 μM solution of HP 10 was treated with porcine liver esterase (Aldrich, E2884), 4 u/mL) in PBS at 37° C., then 5 μL reaction mixture was taken into 995 μL acetonitrile and detected using WSP-5. The results are shown in FIG. 1 which indicate that HP 10 releases H2S in phosphate buffer saline with 4 units of esterase.
Because of the high volatility of H2S, when the escape rate is greater than formation rate, the concentration decreases. The peak concentration of H2S also appeared within about 25 min.
HP-101 (final concentration: 200 μM) or other control compounds were added to PBS (10 mL) buffer containing esterase (1 unit/mL) at 37° C. After 15 minutes, aliquots of 100 μL samples were taken out and added into 100 μL PBS containing 50 μM WSP-5 and 100 μM CTAB in 96-well plate. After mixing and standing for 5 min at room temperature, the fluorescent intensities at 535 nm were recorded by a plate reader with excitation at 485 nm. (FIG. 1). […]

esterase = assay: Esterase triggered lactone formation monitored by LC-MS/MS; type: biochemical
Experimental: The release of hydrogen sulfide and its release rate were detected using LC-MS. A 200 μM HP 10 reaction mixture was treated with esterase for 25 min which led to formation of more than 180 μM of the lactone product as shown in FIG. 2.
HP-101 (final concentration: 200 μM) was added to PBS (10 mL) with 1 unit/mL esterase at 37° C. Reaction mixture (10 μL) was taken out every 3 minutes and added into a vial containing 990 μL methanol at −78° C. for 5 minutes. The mixture (14.5×1000 rp) was centrifuged, and the supernatant was used as the sample for LC-MS/MS analysis (Agilent 1100 LC, 6410 TripleQ MS/MS, Ion transition: 205.0/135.0, positive mode).

PLE [2] = assay: Esterase-triggered release of H2S and parent drug from hybrid precursor (methylene blue method, HPLC); type: biochemical, pig; details: 200 μM in phosphate buffer pH 7.4, PLE 20 unit/mL, 37° C.
Experimental: To a 9.9 mL phosphate buffer (pH 7.4) solution was added 11.1 mg (200 unit) PLE, followed by the addition of 100 μL 20 mM HP-105 stock solution (final concentration: 200 μM). The resultant solution was sealed and stirred at 37° C. At every 30 min, 200 μL of reaction solution was taken into a 1.5 mL vial containing 200 μL zinc acetate (1%, w/v). Then the vial was centrifuged for 10 min. (14.5×1000 rp). The supernatant was removed and the precipitate was washed with PBS solution (100 μL×2). 600 μL of N,N-dimethyl-1,4-phenylenediaminesulfate (0.2% w/v in 20% H2SO4 solution) and 50 μL ferric chloride (10% w/v in 0.2% H2SO4 solution) was added to the vial. Then the vial was centrifuged for 5 min (14.5×1000 rp). The absorbance (at 740 nm) of the resulting solution was measured (after stirring for 10 min). H2S concentration was calculated based on a calibration curve of NaHS. (FIG. 7A).

PLE [3] = assay: H2S concentration measurement by electrode probe ISO-H2S-2 in phosphate buffer with esterase; type: biochemical, pig; details: 200 μM precursor in PBS at 37° C. with 1 unit/mL PLE
Experimental: HPs (compounds HP-101, HP-102, HP-103, HP-104; final concentration=200 μM) were added to an incubation chamber (World Precision Instruments; WPI) containing phosphate buffer (10 mM; pH 7.4, 10 mL), and esterase (1 unit/mL) at 37° C. H2S formation was detected with the use of a 2-mm H2S-selective microelectrode (ISO-H2S-2; WPI) attached to an Apollo 1100 Free Radical Analyser (WPI) and shown as picoamps current generated. A standard curve (using Na2S.9H2O) was generated by following literature procedures, but using PBS containing esterase at 37° C. (FIG. 4).
H2S release from these precursors was studied (FIG. 4). […] For 200 μM of the precursor compound in PBS at 37° C. with 1 unit/mL PLE, the peak H2S concentration for the fastest one, HP-101, was about 95 μM at 15 min; and for the slowest one, HP-104, it was about 13 μM at 43 min.

[4] = test system: esterases produced by the cells; assay: H2S release from HP-101 in cell culture media (ISO-H2S-2 electrode); details: 200 μM, 37° C.
Experimental: The in vitro release of H2S from HP-101 was studied under various conditions such as HP-101 (200 μM) in DMEM media (5 mL), cell+DMEM media without FBS, and cell+DMEM media with FBS.
HP-101 (200 μM) was added to an incubation chamber (World Precision Instruments; WPI) containing cell culture media (10 mL) at 37° C. H2S formation was detected with the use of an ISO-H2S-2 probe attached to an Apollo 1100 Free Radical Analyser and shown as picoamps current generated. A standard curve (using Na2S.9H2O) was also generated under the same conditions.

Compound: [Na+].[Na+].[S-2] [Na2S]
effect on TNF-α secretion [1]: pro-inflammatory effect

Compound: CC(=O)Oc1cc(C)cc(C)c1C(C)(C)CC(=O)S [HP 10, 3-(2-acetoxy-4,6-dimethylphenyl)-3-methylbutanethioic S-acid]
H2S release detected using WSP-5 (porcine liver esterase): releases H2S | lactone product formed (esterase; 200 μM reaction mixture treated with esterase for 25 min): more than 180 μM | H2S released (esterase; 200 μM, esterase, 25 min, inferred from lactone formed): more than 90%

Compound: C1COCCN1.COc1ccc(P(=S)(S)N2CCOCC2)cc1 (stereo not shown) [GYY 4137]
effect on TNF-α secretion [1]: effectively inhibited TNF-α secretion

generation of naproxen and H2S by treatment with an esterase (PLE [2]): could generate naproxen and H2S
Compound: COc1ccc2cc([C@H](C)C(=O)Oc3cc(C)cc(C)c3C(C)(C)CC([O-])=S)ccc2c1.[Na+] [HP-105, Sodium (S)-3-(2-((2-(6-methoxynaphthalen-2-yl)propanoyl)oxy)-4,6-dimethylphenyl)-3-methylbutanethioate]

Compound: CC(=O)Oc1cc(C)cc(C)c1C(C)(C)CC(=O)[S-].[Na+] [HP-101, Sodium 3-(2-acetoxy-4,6-dimethylphenyl)-3-methylbutanethioate]
peak H2S concentration (PLE [3]): about 95 μM | time of peak H2S concentration (PLE [3]): 15 min | H2S release in media collected after overnight of cell culture [4]: released at a moderate rate | H2S release in DMEM alone ([4]; DMEM media without cells): did not release H2S
